In this assay the test system is H3K23 acetylation in U-2 OS cells. The experiment in a line: U2OS cell H3K23 acetylation IF assay (immunofluorescence). The assay is classed as cell-based. Particulars: Homo sapiens; for IC50: 24 h incubation, read-out: H3K23 ac/IC50; for Emax: inhibition of H3K23 acetylation, 24 h, read-out: Maximum inhibition rate/Imax %. The method, then:
Test Example 3: U2OS Cell H3K23 Acetylation IF Assay (Immunofluorescence)
I. Reagents and Instruments
• 1. U-2 OS (ATCC HTB-96) • 2. Recombinant anti-histone H3 (acetyl K23) antibody (Abcam, ab177275) • 3. Goat anti-rabbit IgG (H+L), Superclonal™ recombinant secondary antibody, Alexa Fluor 488 (Thermofisher, A27034) • 4. Hoechst 33342 (Sigma-Aldrich, B2261-25MG) • 5. Assay plate, 96-well, black with clear bottom (Corning, 3603) • 6. Bovine serum albumin (BSA) (Sangon Biotech, A500023-0100) • 7. Methanol (GENERAL-REAGENT, G75851D) • 8. Tween-20 (Sangon, A100777-0500) • 9. Triton X-100 (Solarbio, T8200) • 10. PBS (Shanghai BasalMedia Technologies Co., Ltd., B320KJ) • 11. 20×PBS buffer (Sangon Biotech, B548117-0500) • 12. McCoy's 5A medium (Gibco, 16600082) • 13. 0.25% trypsin-EDTA (1×) (Gibco, 25200-072) • 14. Pen strep (Gibco, 15140-122) • 15. DPBS (1×) (Gibco, 14190-144) • 16. FBS (Gibco, 10091148) • 17. Automatic cell counter (Countstar, IC1000) • 18. Thermostatic incubator (Thermo, 1160) • 19. ImageXpress® Micro Confocal (Molecular Device)
a. Blocking buffer: PBS (Shanghai BasalMedia)+BSA (final concentration of 1%)+Triton X-100 (final concentration of 0.5%).
b. Wash buffer: PBS (20×PBS was diluted to 1×PBS)+Tween-20 (final concentration of 0.1%).
c. Primary antibody solution: Recombinant anti-histone H3 (acetyl K23) antibody was diluted in blocking buffer at a ratio of 1:1000.
d. Secondary antibody solutions: Goat anti-rabbit IgG (H+L), Superclonal™ recombinant secondary antibody, Alexa Fluor 488 was diluted in blocking buffer at a ratio of 1:1000, and Hoechst 33342 was diluted in blocking buffer at a ratio of 1:5000.
e. Compounds: initial concentration of 100 μM, 3-fold dilution, 9 gradient concentrations. All compound concentrations were diluted 500-fold with McCoy's 5A medium for later use.
2. Experimental Procedure
2.1. Cell Treatment (Day One)
a. The state of U-2 OS cells was observed under a microscope to make sure that the cell confluence was about 90%.
b. The cell supernatant was discarded. The cells were rinsed with DPBS once, and the DPBS was removed. The cells were digested with a proper amount of trypsin and left to stand at room temperature or 37° C. for 5 min.
c. The digestion was stopped with an equal volume of medium containing 10% FBS, and the cell suspension was collected and centrifuged at 300 g for 3 min. The cells were suspended in a proper amount of fresh medium.
d. The resulting cell suspension was collected and cell counting was performed.
e. The cell suspension was diluted and plated at 9000 cells/50 μL/well.
f. The wells on the periphery were blocked with 100 μL of PBS.
g. The cell culture plates were incubated overnight in a 37° C., 5% carbon dioxide incubator.
2.2. Compound Addition (Day Two)
a. 50 μL of diluted compound was added to the cell supernatant (50 μL/well) in each cell plate.
b. After the addition, the cell plates were incubated in a 37° C., 5% carbon dioxide incubator for 24 h.
2.3. Immunofluorescence Staining and Measurement (Day Three to Day Four)
a. After the 24-hour incubation, the cell plates were removed from the incubator. The medium was discarded, and plates were fixed with pre-cooled methanol at room temperature for 10 min.
b. The fixation buffer was discarded, and the plates were quickly washed with wash buffer 3 times and then slowly washed 3 times (5 min/wash).
c. The wash buffer was discarded, and blocking buffer was added. The plates were incubated at room temperature for 60 min.
d. The blocking buffer was discarded, and the prepared primary antibody solution was added. The plates were incubated overnight at 4° C.
e. The primary antibody solution was discarded, and the prepared secondary antibody solution was added. The plates were incubated at room temperature for 60 min.
f. The secondary antibody solution was discarded, and the plates were quickly washed with wash buffer 3 times and then slowly washed 5 times (5 min/wash).
g. The plates were tested on ImageXpress® Micro Confocal.
h. […]

Consider `COc1cccc(OC)c1S(=O)(=O)Nc1noc2cc(Cn3cccn3)c3c(c12)OCC3` [Compound 1, N-(4-((1H-pyrazol-1-yl)methyl)-2,3-dihydrobenzofuro[7,6-d]isoxazol-8-yl)-2,6-dimethoxybenzenesulfonamide], for which the IC50 was 1.1 nM and the Emax was determined as 102%.
Take `COc1cccc(OC)c1S(=O)(=O)Nc1noc2cc(Cn3cccn3)c3c(c12)OCCC3` [Compound 2, N-(5-((1H-pyrazol-1-yl)methyl)-3,4-dihydro-2H-chromeno[8,7-d]isoxazol-9-yl)-2,6-dimethoxybenzenesulfonamide]: the IC50 was 0.4 nM and the Emax was 98.5%.
Taken in the same sequence, the figures for `COc1ccccc1S(=O)(=O)Nc1noc2cc(Cn3cccn3)c3c(c12)OCCC3` [Compound 3, N-(5-((1H-pyrazol-1-yl)methyl)-3,4-dihydro-2H-chromeno[8,7-d]isoxazol-9-yl)-2-methoxybenzenesulfonamide] were 0.9 nM and 106%.
Taken in the same sequence, the figures for `COc1cccc(OC)c1S(=O)(=O)Nc1noc2cc(Cn3cccn3)c3c(c12)OC(F)(F)O3` [Compound 5, N-(4-((1H-pyrazol-1-yl)methyl)-2,2-difluoro-[1,3]dioxolo[4′,5′:5,6]benzo[1,2-d]isoxazol-8-yl)-2,6-dimethoxybenzenesulfonamide] were 0.6 nM and 104%.
For `CCOc1cc(C)ccc1S(=O)(=O)Nc1noc2cc(Cn3cccn3)c3c(c12)OCCC3` [Compound 7, N-(5-((1H-pyrazol-1-yl)methyl)-3,4-dihydro-2H-chromeno[8,7-d]isoxazol-9-yl)-2-ethoxy-4-methylbenzenesulfonamide], the IC50 stood at 1.4 nM and the Emax is 97.4%.
The like results for `Cc1ccc(S(=O)(=O)Nc2noc3cc(Cn4cccn4)c4c(c23)OCCC4)c(OCC(F)(F)F)c1` [Compound 8, N-(5-((1H-pyrazol-1-yl)methyl)-3,4-dihydro-2H-chromeno[8,7-d]isoxazol-9-yl)-4-methyl-2-(2,2,2-trifluoroethoxy)benzenesulfonamide] were, in that order, 2.8 nM and 99.4%.
Taken in the same sequence, the figures for `COc1ccc(F)cc1S(=O)(=O)Nc1noc2cc(Cn3cccn3)c3c(c12)OCCC3` [Compound 9, N-(5-((1H-pyrazol-1-yl)methyl)-3,4-dihydro-2H-chromeno[8,7-d]isoxazol-9-yl)-5-fluoro-2-methoxybenzenesulfonamide] were 0.75 nM and 99.5%.
The like results for `COc1cccc(OC(F)(F)F)c1S(=O)(=O)Nc1noc2cc(Cn3cccn3)c3c(c12)OCCC3` [Compound 10, N-(5-((1H-pyrazol-1-yl)methyl)-3,4-dihydro-2H-chromeno[8,7-d]isoxazol-9-yl)-2-methoxy-6-(trifluoromethoxy)benzenesulfonamide] were, in that order, 1.2 nM and 106%.
In the case of `COc1ccccc1S(=O)(=O)Nc1noc2cc(Cn3cccn3)c3c(c12)OCC3` [Compound 20, N-(4-((1H-pyrazol-1-yl)methyl)-2,3-dihydrobenzofuro[7,6-d]isoxazol-8-yl)-2-methoxybenzenesulfonamide], the IC50 was found to be 4.6 nM and the Emax came out at 99.4%.

Source of the values: patent US20250145637A1, “SULFONAMIDE DERIVATIVE, PREPARATION METHOD THEREFOR AND MEDICAL USE THEREOF” (Jiangsu Hengrui Pharmaceuticals Co. Ltd., priority 2021, published 2025).
